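Step 1: Grow cells in 96-well plates. Step 2: Expose to compound for 48 hours at 5 concentrations. Step 3: Interpolate endpoints linearly; if unreached, use highest concentration. Abbreviation: GI50, concentration required for 50% inhibition of growth.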 Activity calls are given as the source filed them. Rule as the data show it: active = GI50 up to about 1.1 µM and inactive = higher.
Experiments:
Experiment in all cases: NCI tumour cell line growth inhibition, 48 h
[1] = test system: UACC-62
[2] = test system: BT-549
[3] = test system: HOP-92
[4] = test system: DU-145
[5] = test system: M14
[6] = test system: KM12
[7] = test system: NCI-H23
[8] = test system: K562
[9] = test system: SR
[10] = test system: A498
[11] = test system: Hs-578T
[12] = test system: Malme-3M
[13] = test system: HOP-62
[14] = test system: ACHN
[15] = test system: SF-268
[16] = test system: SN12C
[17] = test system: HT-29
[18] = test system: PC-3
[19] = test system: EKVX
[20] = test system: KM-20L2

| SMILES | GI50 [1] | GI50 [2] | GI50 [3] | GI50 [4] | GI50 [5] | GI50 [6] | GI50 [7] | GI50 [8] | GI50 [9] | GI50 [10] | GI50 [11] | GI50 [12] | GI50 [13] | GI50 [14] | GI50 [15] | GI50 [16] | GI50 [17] | GI50 [18] | GI50 [19] | GI50 [20] |
| --- | --- | --- | --- | --- | --- | --- | --- | --- | --- | --- | --- | --- | --- | --- | --- | --- | --- | --- | --- | --- |
| O=C1N=C(Nc2ccccc2Cl)N/C1=C\c1ccc(Cl)cc1Cl | > 100 µM (inactive) | > 100 µM (inactive) | 39.9 µM (inactive) | 33.3 µM (inactive) | 72.6 µM (inactive) | 45.6 µM (inactive) | > 100 µM (inactive) | 9.46 µM (inactive) | 5.3 µM (inactive) | 33.1 µM (inactive) | > 100 µM (inactive) | 53.6 µM (inactive) | 62.4 µM (inactive) | 62.1 µM (inactive) | > 100 µM (inactive) | 25 µM (inactive) | > 100 µM (inactive) | 33.7 µM (inactive) | > 100 µM (inactive) |  |
| COc1ccc2cc(-c3ccc(OC)c(OC)c3)c(=O)oc2c1 | > 100 µM (inactive) | > 100 µM (inactive) | > 100 µM (inactive) | > 100 µM (inactive) | > 100 µM (inactive) | > 100 µM (inactive) | > 100 µM (inactive) | > 100 µM (inactive) | > 100 µM (inactive) | 96.8 µM (inactive) | 29.3 µM (inactive) | > 100 µM (inactive) | 69.5 µM (inactive) | > 100 µM (inactive) | 62.1 µM (inactive) | > 100 µM (inactive) | > 100 µM (inactive) | > 100 µM (inactive) | > 100 µM (inactive) |  |
| O=C1CCC(=O)c2ccccc2N1 |  |  | > 100 µM (inactive) |  | > 100 µM (inactive) | > 100 µM (inactive) | > 100 µM (inactive) | > 100 µM (inactive) |  | > 100 µM (inactive) |  | > 100 µM (inactive) | > 100 µM (inactive) | > 100 µM (inactive) | > 100 µM (inactive) | > 100 µM (inactive) | > 100 µM (inactive) |  | > 100 µM (inactive) | > 100 µM (inactive) |
| C=CCC1(C)CCCN(Cc2ccccc2)C1=O (configuration not stated) | > 10 µM (inactive) | > 10 µM (inactive) | > 10 µM (inactive) | > 10 µM (inactive) | > 10 µM (inactive) | > 10 µM (inactive) | > 10 µM (inactive) | > 10 µM (inactive) | > 10 µM (inactive) | 1.32 µM (inactive) | > 10 µM (inactive) | 0.0161 µM (active) | > 10 µM (inactive) | > 10 µM (inactive) | > 10 µM (inactive) | > 10 µM (inactive) | > 10 µM (inactive) | > 10 µM (inactive) | > 10 µM (inactive) |  |
| CCc1ccccc1NC(=O)C(=O)C(C(=O)c1ccc(OC)cc1)c1ccc(OC)cc1 (configuration not stated) | > 100 µM (inactive) |  |  |  | > 100 µM (inactive) | > 100 µM (inactive) | > 100 µM (inactive) | > 100 µM (inactive) |  | > 100 µM (inactive) |  | > 100 µM (inactive) | > 100 µM (inactive) | > 100 µM (inactive) | > 100 µM (inactive) | > 100 µM (inactive) | > 100 µM (inactive) |  | > 100 µM (inactive) | > 100 µM (inactive) |
| O=C1c2ccccc2C(=O)N1C/C=N/NS(=O)(=O)c1ccc(F)cc1 | > 100 µM (inactive) |  |  |  |  | > 100 µM (inactive) | > 100 µM (inactive) | > 100 µM (inactive) | > 100 µM (inactive) |  |  | > 100 µM (inactive) |  | > 100 µM (inactive) | > 100 µM (inactive) | > 100 µM (inactive) |  |  | > 100 µM (inactive) | > 100 µM (inactive) |
| O=C1CCC(=O)N1CNc1cccc(NCN2C(=O)CCC2=O)c1 | 48.5 µM (inactive) |  | > 100 µM (inactive) |  | > 100 µM (inactive) | > 100 µM (inactive) | > 100 µM (inactive) | 45.6 µM (inactive) |  |  |  | > 100 µM (inactive) | > 100 µM (inactive) | 71.4 µM (inactive) | 70 µM (inactive) | > 100 µM (inactive) | > 100 µM (inactive) |  | > 100 µM (inactive) | 11 µM (inactive) |
| CCOc1cc2c(NCCCN(CCO)CCO)ncnc2c(OCC)c1OCC | > 100 µM (inactive) | > 76.4 µM (inactive) | 34.3 µM (inactive) | > 100 µM (inactive) | > 83.2 µM (inactive) | > 100 µM (inactive) | > 100 µM (inactive) | > 100 µM (inactive) | > 100 µM (inactive) | > 73.5 µM (inactive) | 82.2 µM (inactive) | 55.6 µM (inactive) | > 100 µM (inactive) | > 100 µM (inactive) | > 100 µM (inactive) | > 100 µM (inactive) | > 65.6 µM (inactive) | > 100 µM (inactive) | > 100 µM (inactive) |  |
| C=C(C)CCOC(c1ccccc1)(c1ccccc1)c1ccccc1 | 40.1 µM (inactive) |  | 33.6 µM (inactive) |  | 32.8 µM (inactive) | 48.6 µM (inactive) | 27.8 µM (inactive) | > 100 µM (inactive) |  |  |  | 28.4 µM (inactive) | 70.5 µM (inactive) | 25.7 µM (inactive) | 47 µM (inactive) | 69 µM (inactive) | 22.3 µM (inactive) |  |  | 23.5 µM (inactive) |
| CN1CCCC(C(=O)OCC(=O)C2(O)CCC3C4CCC5=CC(=O)CCC5(C)C4C(O)CC32C)C1 (configuration not stated) | 18.1 µM (inactive) | 16.7 µM (inactive) | 50.9 µM (inactive) | 18.7 µM (inactive) | 23.2 µM (inactive) | 25.2 µM (inactive) | 20.5 µM (inactive) | 9.12 µM (inactive) | 1.96 µM (inactive) | 16.4 µM (inactive) | 35.3 µM (inactive) | 17 µM (inactive) | 14.6 µM (inactive) | 17.9 µM (inactive) | 20.9 µM (inactive) | 8.73 µM (inactive) | 10.8 µM (inactive) | 11.4 µM (inactive) | 17.1 µM (inactive) |  |
| CN(C)c1ccc(/C=C2\Cc3ccccc3C2=O)cc1Br | 59.8 µM (inactive) |  |  |  | 54.6 µM (inactive) | 43.2 µM (inactive) | 39.2 µM (inactive) | 33 µM (inactive) |  | > 100 µM (inactive) |  | 31.8 µM (inactive) | > 100 µM (inactive) | 45.8 µM (inactive) | 32.7 µM (inactive) | 51.5 µM (inactive) | 34.8 µM (inactive) |  | 76.6 µM (inactive) | 81.8 µM (inactive) |
| COC(=O)OCC1OC(N2C(=O)NC(=O)C(Br)C2N=[N+]=[N-])CC1OC(=O)OC (configuration not stated) | > 100 µM (inactive) |  | > 100 µM (inactive) |  | > 100 µM (inactive) | > 100 µM (inactive) | > 100 µM (inactive) |  |  |  |  | > 100 µM (inactive) | > 100 µM (inactive) | > 100 µM (inactive) | > 100 µM (inactive) | > 100 µM (inactive) | > 100 µM (inactive) |  |  | > 100 µM (inactive) |
| O=C(Nn1c(-c2ccccc2)nc2ccccc2c1=O)c1ccccc1O | 23.4 µM (inactive) | 38.6 µM (inactive) | 27.2 µM (inactive) | 49.1 µM (inactive) | 51.1 µM (inactive) | 60.1 µM (inactive) | 34.4 µM (inactive) | 54 µM (inactive) | 32.8 µM (inactive) | 71.6 µM (inactive) | > 100 µM (inactive) | 25.7 µM (inactive) | 76.9 µM (inactive) | 37.8 µM (inactive) | 45.7 µM (inactive) | 37.2 µM (inactive) | 61.2 µM (inactive) | 28.9 µM (inactive) | > 100 µM (inactive) |  |
| O=C(NCCCCCCCCCCCCNC(=O)Nc1cccc2ccccc12)Nc1cccc2ccccc12 | 12.6 µM (inactive) | 14.4 µM (inactive) | 12.1 µM (inactive) | 24.3 µM (inactive) | 20.1 µM (inactive) | 18.4 µM (inactive) | 16.8 µM (inactive) | 20.2 µM (inactive) | 16.7 µM (inactive) | 16.9 µM (inactive) | 14.7 µM (inactive) | 15.3 µM (inactive) | 6.15 µM (inactive) | 14 µM (inactive) | 14.3 µM (inactive) | 17.6 µM (inactive) | 21 µM (inactive) | 16.2 µM (inactive) | 19.1 µM (inactive) |  |
| O=C1Nc2c(Cl)cc(Cl)cc2/C1=N/Nc1ccccc1[N+](=O)[O-] | 22.2 µM (inactive) | 9.68 µM (inactive) | 12 µM (inactive) | > 100 µM (inactive) | 39.3 µM (inactive) | 88.9 µM (inactive) | 26.1 µM (inactive) | 38.6 µM (inactive) | 5.45 µM (inactive) | 55.7 µM (inactive) | 8.32 µM (inactive) | 29.2 µM (inactive) | 5.47 µM (inactive) | 11.6 µM (inactive) | 25.1 µM (inactive) | 85.9 µM (inactive) | > 100 µM (inactive) | 40.8 µM (inactive) | 5.7 µM (inactive) |  |
| Cn1c(=O)c2c(ncn2CCCCn2ccnc2[N+](=O)[O-])n(C)c1=O | > 100 µM (inactive) |  |  |  | > 100 µM (inactive) | > 100 µM (inactive) | > 100 µM (inactive) | > 100 µM (inactive) | > 100 µM (inactive) |  |  | > 100 µM (inactive) | > 100 µM (inactive) | > 100 µM (inactive) | > 100 µM (inactive) | > 100 µM (inactive) | > 100 µM (inactive) |  | > 100 µM (inactive) | > 100 µM (inactive) |
| CCCCCCCCCC[C@@H](O)[C@H]1CC[C@@H]([C@H]2CC[C@H]([C@H](O)CCCCCCCCCC[C@@H]3CC(CC(C)=O)C(=O)O3)O2)O1 (some centres not stated) | 3.92 µM (inactive) | 2.48 µM (inactive) | 17 µM (inactive) | 9.27 µM (inactive) | 6.43 µM (inactive) | 2.52 µM (inactive) | 0.00223 µM (active) | 1.84 µM (inactive) | 0.59 µM (active) | 38 µM (inactive) | 1.04 µM (active) | 15.1 µM (inactive) | 7.55 µM (inactive) | 1.17 µM (inactive) | 2.1 µM (inactive) | 2.17 µM (inactive) | 3.42 µM (inactive) | 4.05 µM (inactive) | 0.372 µM (active) |  |
